ChEMBL document CHEMBL1201862, “PubChem BioAssay data set” (2004)
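Dose response: 5 concentrations. Exposure: 48 h. Format: 96-well plates. Endpoint: linear interpolation; highest concentration if not reached. GI50 marks 50% less growth.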 Calls of active or inactive are those of the source. Rule as the data show it: active = GI50 up to about 1.1 µM and inactive = higher.

Tests used:
Test in all cases: DTP human tumour cell line panel, 48 h
786-0 = system: 786-0
A498 = system: A498
A549 = system: A549
ACHN = system: ACHN
BT-549 = system: BT-549
CAKI-1 = system: CAKI-1
COLO 205 = system: COLO 205
DU-145 = system: DU-145
EKVX = system: EKVX
HCC 2998 = system: HCC 2998
HCT-116 = system: HCT-116
HCT-15 = system: HCT-15
HL-60 = system: HL-60
HOP-62 = system: HOP-62
HOP-92 = system: HOP-92
HT-29 = system: HT-29
Hs-578T = system: Hs-578T
IGROV-1 = system: IGROV-1
K562 = system: K562
KM12 = system: KM12
LOX IMVI = system: LOX IMVI
M14 = system: M14
MCF7 = system: MCF7
MDA-MB-231 = system: MDA-MB-231
MDA-MB-435 = system: MDA-MB-435
MDA-N = system: MDA-N
MOLT-4 = system: MOLT-4
Malme-3M = system: Malme-3M
NCI-H226 = system: NCI-H226
NCI-H23 = system: NCI-H23
NCI-H460 = system: NCI-H460
NCI-H522 = system: NCI-H522
NCI/ADR-RES = system: NCI/ADR-RES
OVCAR-3 = system: OVCAR-3
OVCAR-4 = system: OVCAR-4
OVCAR-5 = system: OVCAR-5
OVCAR-8 = system: OVCAR-8
PC-3 = system: PC-3
RPMI-8226 = system: RPMI-8226
RXF 393 = system: RXF 393
SF-268 = system: SF-268
SF-295 = system: SF-295
SF-539 = system: SF-539
SK-MEL-2 = system: SK-MEL-2
SK-MEL-5 = system: SK-MEL-5
SK-OV-3 = system: SK-OV-3
SN12C = system: SN12C
SNB-19 = system: SNB-19
SNB-75 = system: SNB-75
SW-620 = system: SW-620
T47D = system: T47D
TK-10 = system: TK-10
U-251 = system: U-251
UACC-257 = system: UACC-257
UACC-62 = system: UACC-62
UO-31 = system: UO-31
CCRF-CEM = system: CCRF-CEM
SK-MEL-28 = system: SK-MEL-28

In the case of `Cn1c(=S)[nH]c2sc3c(c2c1=O)CCSC3`, the GI50 (786-0) is reported as 76.6 µM (inactive), the GI50 (A498) is reported as 31.6 µM (inactive) and the GI50 (A549) is reported as 43.1 µM (inactive). The GI50 (ACHN) was 42.9 µM (inactive), the GI50 (BT-549) was 32.4 µM (inactive) and the GI50 (CAKI-1) was 44.8 µM (inactive). The GI50 (COLO 205) was 47.1 µM (inactive), the GI50 (DU-145) was 24.3 µM (inactive) and the GI50 (EKVX) was 20.8 µM (inactive). The GI50 (HCC 2998) was 21.8 µM (inactive), the GI50 (HCT-116) was 34.8 µM (inactive) and the GI50 (HCT-15) was 31 µM. The GI50 (HL-60) was 16.7 µM (inactive), the GI50 (HOP-62) was 25.9 µM (inactive) and the GI50 (HOP-92) was 23.9 µM (inactive). For the same compound, the GI50 (HT-29) was 29.9 µM (inactive), the GI50 (Hs-578T) was > 100 µM (inactive) and the GI50 (IGROV-1) was 23.9 µM (inactive). The GI50 (K562) was 42.9 µM (inactive), the GI50 (KM12) was 32.1 µM (inactive) and the GI50 (LOX IMVI) was 36.6 µM (inactive). For the same compound, the GI50 (M14) was 35.2 µM (inactive), the GI50 (MCF7) was 44.3 µM (inactive) and the GI50 (MDA-MB-231) was > 100 µM (inactive). The GI50 (MDA-MB-435) was 49.1 µM (inactive), the GI50 (MDA-N) was 54.7 µM (inactive) and the GI50 (MOLT-4) was 33.8 µM (inactive). The GI50 (Malme-3M) was 58.2 µM (inactive), the GI50 (NCI-H226) was 22 µM (inactive) and the GI50 (NCI-H23) was 36.9 µM (inactive). The GI50 (NCI-H460) was 35.8 µM (inactive), the GI50 (NCI-H522) was 36.9 µM (inactive) and the GI50 (NCI/ADR-RES) was 31.3 µM (inactive). The GI50 (OVCAR-3) was 24.8 µM (inactive), the GI50 (OVCAR-4) was 43 µM (inactive) and the GI50 (OVCAR-5) was 53.7 µM (inactive). For the same compound, the GI50 (OVCAR-8) was 39.8 µM (inactive), the GI50 (PC-3) was 44.2 µM (inactive) and the GI50 (RPMI-8226) was 32.4 µM (inactive). For the same compound, the GI50 (RXF 393) was 3.05 µM (inactive), the GI50 (SF-268) was 26.2 µM (inactive) and the GI50 (SF-295) was 29.9 µM (inactive). The GI50 (SF-539) was 54.1 µM (inactive), the GI50 (SK-MEL-2) was > 100 µM (inactive) and the GI50 (SK-MEL-5) was 36 µM (inactive). The GI50 (SK-OV-3) was 90.8 µM (inactive), the GI50 (SN12C) was 40 µM (inactive) and the GI50 (SNB-19) was 47.4 µM (inactive). For the same compound, the GI50 (SNB-75) was > 100 µM (inactive), the GI50 (SW-620) was 35.7 µM (inactive) and the GI50 (T47D) was 25.1 µM (inactive). The GI50 (TK-10) was 80.5 µM (inactive), the GI50 (U-251) was 40.5 µM (inactive) and the GI50 (UACC-257) was 41.8 µM (inactive). For the same compound, the GI50 (UACC-62) was 24.8 µM (inactive) and the GI50 (UO-31) was 11.7 µM (inactive).
With `CCOC(=O)C1=C(C)N(c2ccc(Cl)cc2)C2(O)C=CC(O)=C3C(=O)c4ccccc4C(=O)C312` (stereo unspecified) the GI50 (786-0) was 2.12 µM (inactive), the GI50 (A498) was 15.2 µM (inactive) and the GI50 (A549) was 4.56 µM (inactive). The GI50 (ACHN) was 5 µM (inactive), the GI50 (BT-549) was 10.6 µM (inactive) and the GI50 (CAKI-1) was 1.96 µM (inactive). For the same compound, the GI50 (CCRF-CEM) was 2.34 µM (inactive), the GI50 (COLO 205) was 3.72 µM (inactive) and the GI50 (DU-145) was 8.09 µM (inactive). The GI50 (EKVX) was 4.36 µM (inactive), the GI50 (HCT-116) was 3.2 µM (inactive) and the GI50 (HCT-15) was 2.12 µM. For the same compound, the GI50 (HL-60) was 2.37 µM (inactive), the GI50 (HOP-62) was 5.2 µM (inactive) and the GI50 (HOP-92) was 1.73 µM (inactive). For the same compound, the GI50 (Hs-578T) was 4.26 µM (inactive), the GI50 (IGROV-1) was 3.94 µM (inactive) and the GI50 (K562) was 4.23 µM (inactive). For the same compound, the GI50 (KM12) was 6.97 µM (inactive), the GI50 (LOX IMVI) was 3.72 µM (inactive) and the GI50 (M14) was 2.63 µM (inactive). For the same compound, the GI50 (MCF7) was 2.72 µM (inactive), the GI50 (MDA-MB-231) was 10.9 µM (inactive) and the GI50 (MDA-MB-435) was 2.59 µM (inactive). For the same compound, the GI50 (MDA-N) was 4.7 µM (inactive), the GI50 (MOLT-4) was 2.43 µM (inactive) and the GI50 (Malme-3M) was 0.483 µM (active). For the same compound, the GI50 (NCI-H23) was 10.1 µM (inactive), the GI50 (NCI-H460) was 5.38 µM (inactive) and the GI50 (NCI-H522) was 2.21 µM (inactive). For the same compound, the GI50 (NCI/ADR-RES) was 2.49 µM (inactive), the GI50 (OVCAR-3) was 1.91 µM (inactive) and the GI50 (OVCAR-4) was 3.97 µM (inactive). For the same compound, the GI50 (OVCAR-5) was 12.9 µM (inactive), the GI50 (OVCAR-8) was 5.11 µM (inactive) and the GI50 (PC-3) was 3.34 µM (inactive). For the same compound, the GI50 (RPMI-8226) was 1.8 µM (inactive), the GI50 (SF-268) was 1.67 µM (inactive) and the GI50 (SF-295) was 6.93 µM (inactive). The GI50 (SF-539) was 4.16 µM (inactive), the GI50 (SK-MEL-2) was 4.32 µM (inactive) and the GI50 (SK-MEL-5) was 7.96 µM (inactive). For the same compound, the GI50 (SK-OV-3) was 10.6 µM (inactive), the GI50 (SN12C) was 4.16 µM (inactive) and the GI50 (SNB-19) was 12.9 µM (inactive). For the same compound, the GI50 (SW-620) was 4.08 µM (inactive), the GI50 (T47D) was 3.45 µM (inactive) and the GI50 (TK-10) was 1.71 µM (inactive). For the same compound, the GI50 (U-251) was 3.59 µM (inactive), the GI50 (UACC-257) was 18.2 µM (inactive) and the GI50 (UACC-62) was 3.44 µM (inactive). For the same compound, the GI50 (UO-31) was 3.92 µM (inactive).
`CC(C)=c1sc(=C(C)C)c2c1=NC(C)(C)N=2` was tested, and the GI50 (786-0) was > 100 µM (inactive), the GI50 (A498) was 87.5 µM (inactive) and the GI50 (A549) was 51.5 µM (inactive). For the same compound, the GI50 (ACHN) was 37.5 µM (inactive), the GI50 (BT-549) was 67.3 µM (inactive) and the GI50 (CAKI-1) was 77.1 µM (inactive). For the same compound, the GI50 (CCRF-CEM) was 44.3 µM (inactive), the GI50 (COLO 205) was 87.3 µM (inactive) and the GI50 (DU-145) was 58.3 µM (inactive). For the same compound, the GI50 (EKVX) was 57.9 µM (inactive), the GI50 (HCC 2998) was 27.5 µM (inactive) and the GI50 (HCT-116) was 50.5 µM (inactive). For the same compound, the GI50 (HCT-15) was 47.8 µM, the GI50 (HL-60) was 57.4 µM (inactive) and the GI50 (HOP-62) was > 100 µM (inactive). For the same compound, the GI50 (HT-29) was 74.6 µM (inactive), the GI50 (Hs-578T) was 53.6 µM (inactive) and the GI50 (IGROV-1) was 42.1 µM (inactive). The GI50 (KM12) was 78.9 µM (inactive), the GI50 (LOX IMVI) was 27 µM (inactive) and the GI50 (M14) was 77.4 µM (inactive). The GI50 (MCF7) was 48.3 µM (inactive), the GI50 (MDA-MB-231) was > 100 µM (inactive) and the GI50 (MDA-MB-435) was > 100 µM (inactive). The GI50 (MDA-N) was 65.6 µM (inactive), the GI50 (MOLT-4) was 42.4 µM (inactive) and the GI50 (Malme-3M) was > 100 µM (inactive). The GI50 (NCI-H23) was 53.7 µM (inactive), the GI50 (NCI-H460) was 43.7 µM (inactive) and the GI50 (NCI-H522) was 32.9 µM (inactive). For the same compound, the GI50 (NCI/ADR-RES) was > 100 µM (inactive), the GI50 (OVCAR-3) was 72.6 µM (inactive) and the GI50 (OVCAR-4) was > 100 µM (inactive). For the same compound, the GI50 (OVCAR-5) was 36.5 µM (inactive), the GI50 (OVCAR-8) was 94 µM (inactive) and the GI50 (PC-3) was 45.9 µM (inactive). For the same compound, the GI50 (RPMI-8226) was 37.2 µM (inactive), the GI50 (RXF 393) was > 100 µM (inactive) and the GI50 (SF-268) was 64.9 µM (inactive). For the same compound, the GI50 (SF-295) was 75.5 µM (inactive), the GI50 (SF-539) was > 100 µM (inactive) and the GI50 (SK-MEL-28) was 73.6 µM (inactive). For the same compound, the GI50 (SK-MEL-2) was 26.7 µM (inactive), the GI50 (SK-MEL-5) was 79.6 µM (inactive) and the GI50 (SK-OV-3) was > 100 µM (inactive). The GI50 (SN12C) was 58.5 µM (inactive), the GI50 (SNB-19) was > 100 µM (inactive) and the GI50 (SW-620) was 72.6 µM (inactive). For the same compound, the GI50 (T47D) was 52.8 µM (inactive), the GI50 (TK-10) was > 100 µM (inactive) and the GI50 (U-251) was 46 µM (inactive). The GI50 (UACC-257) was 30.9 µM (inactive) and the GI50 (UACC-62) was 37.4 µM (inactive).
